Test results taken from US10722514B2 (FLX Bio, Inc., priority 2017, dated 2020).
Counter-ions that a name gives are not always drawn. Like-named read-outs stand apart in the source and are kept apart here.

Molecular target: T1, recombinant full-length USP7 (Homo sapiens, UniProt Q93009)
T1 construct: A 25 μl reaction volume containing recombinant full-length USP7 (62 pM)
Experiment: USP7-mediated ubiquitin-rhodamine cleavage assay
Format: biochemical
Details: recombinant full-length USP7 62 pM, ubiquitin-rhodamine 100 nM, 1 hour reaction at room temperature
Method in brief: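 Full-length recombinant USP7 (62 pM) in 20 mM HEPES pH 7.3, 150 mM NaCl, 1 mM TCEP, 125 μg/ml BSA, 1% DMSO, preincubated with compound 30 min at RT. Ubiquitin-rhodamine (100 nM final) cleaved 1 h at RT in the dark, stopped with acetic acid; rhodamine fluorescence read, IC50 by 4-parameter nonlinear fit.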

[1] = 30-minute incubation with compound, read-out: Potency: USP7 IC50
[2] = 30-minute pre-incubation, read-out: Potency (USP7 IC50)

T1 sequence (Q93009 whole entry): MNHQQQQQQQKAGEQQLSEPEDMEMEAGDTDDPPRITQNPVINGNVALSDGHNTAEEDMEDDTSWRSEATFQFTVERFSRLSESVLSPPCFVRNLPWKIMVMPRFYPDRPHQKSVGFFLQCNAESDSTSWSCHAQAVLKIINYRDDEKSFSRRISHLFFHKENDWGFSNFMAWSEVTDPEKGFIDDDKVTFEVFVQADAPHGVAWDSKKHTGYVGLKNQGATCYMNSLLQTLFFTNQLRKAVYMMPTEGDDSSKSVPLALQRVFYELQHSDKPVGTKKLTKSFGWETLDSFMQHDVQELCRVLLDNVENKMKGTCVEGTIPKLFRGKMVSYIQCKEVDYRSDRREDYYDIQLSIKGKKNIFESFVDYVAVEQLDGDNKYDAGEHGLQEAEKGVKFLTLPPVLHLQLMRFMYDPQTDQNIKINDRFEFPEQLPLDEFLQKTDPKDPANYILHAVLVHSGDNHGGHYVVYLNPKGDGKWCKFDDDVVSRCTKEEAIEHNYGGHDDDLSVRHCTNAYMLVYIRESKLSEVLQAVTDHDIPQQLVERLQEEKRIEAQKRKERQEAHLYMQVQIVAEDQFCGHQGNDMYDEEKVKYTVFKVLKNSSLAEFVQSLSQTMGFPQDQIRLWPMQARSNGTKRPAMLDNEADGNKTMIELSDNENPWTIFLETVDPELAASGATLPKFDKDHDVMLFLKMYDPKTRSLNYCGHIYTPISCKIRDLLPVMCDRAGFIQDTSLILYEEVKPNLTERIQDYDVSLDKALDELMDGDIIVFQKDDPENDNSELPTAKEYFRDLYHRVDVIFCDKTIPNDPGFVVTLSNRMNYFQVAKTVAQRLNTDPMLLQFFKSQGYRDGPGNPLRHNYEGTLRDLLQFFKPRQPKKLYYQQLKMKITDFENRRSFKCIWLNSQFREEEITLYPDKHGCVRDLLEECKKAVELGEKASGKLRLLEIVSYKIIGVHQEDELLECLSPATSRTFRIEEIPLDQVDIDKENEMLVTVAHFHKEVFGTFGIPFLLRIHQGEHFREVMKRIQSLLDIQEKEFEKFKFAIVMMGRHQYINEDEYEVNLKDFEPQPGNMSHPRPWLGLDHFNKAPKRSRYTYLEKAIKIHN

Row | Compound | IC50 [1] [nM] | IC50 [2] [nM]
1 | Cc1cc(Cl)cc(-c2ccnc3cc(CN4C(=O)CCC4=O)sc23)c1O[C@H]1CCCNCC1 [Example 269, (S)-1-((7-(2-(Azepan-4-yloxy)-5-chloro-3-methylphenyl)thieno[3,2-b]pyridin-2-yl)methyl)pyrrolidine-2,5-dione] | < 1000 | –
2 | Cc1cc(Cl)cc(-c2ccnc3cc(CO)sc23)c1O[C@H]1CNC[C@H]1F [Example 67, (7-(5-Chloro-2-(((3S,4R)-4-fluoropyrrolidin-3-yl)oxy)-3-methylphenyl)thieno[3,2-b]pyridin-2-yl)methanol] | 10000 to 30000 | –
3 | Cc1cc(Cl)cc(-c2ccnc3cc(Cn4c(=O)ccn(CC(F)(F)F)c4=O)sc23)c1O[C@@H]1CCN(C)C[C@@H]1C [Example 273, 3-((7-(5-Chloro-2-(((3S,4R)-1,3-dimethylpiperidin-4-yl)oxy)-3-methylphenyl)thieno[3,2-b]pyridin-2-yl)methyl)-1-(2,2,2-trifluoroethyl)pyrimidine-2,4(1H,3H)-dione] | < 1000 | –
4 | Cc1cc(Cl)cc(-c2ccnc3cc(CN4C(=O)C5C(C4=O)C5(C)C)sc23)c1O[C@@H]1CNC[C@@H]1C (stereo partly drawn) [Example 328, 3-[[7-[5-chloro-3-methyl-2-[(3S,4S)-4-methylpyrrolidin-3-yl]oxy-phenyl]thieno[3,2-b]pyridin-2-yl]methyl]-6,6-dimethyl-3-azabicyclo[3.1.0]hexane-2,4-dione] | < 1000 | –
5 | Cc1cc(Cl)cc(-c2ccnc3cc(CN4C(=O)CCC4=O)sc23)c1OC1CNCCOC1 (stereo not drawn) [Example 271, 1-((7-(2-((1,4-Oxazepan-6-yl)oxy)-5-chloro-3-methylphenyl)thieno[3,2-b]pyridin-2-yl)methyl)pyrrolidine-2,5-dione] | 1000 to 10000 | –
6 | Cc1cc(Cl)cc(-c2ccnc3cc(CN4C(=O)C5CCC5C4=O)sc23)c1O[C@@H]1CN(C(=O)OC(C)(C)C)C[C@@H]1F (stereo partly drawn) [Example 355, tert-butyl (3R,4S)-3-[4-chloro-2-[2-[(2,4-dioxo-3-azabicyclo[3.2.0]heptan-3-yl)methyl]thieno[3,2-b]pyridin-7-yl]-6-methyl-phenoxy]-4-fluoro-pyrrolidine-1-carboxylate; 2,2,2-trifluoroacetic acid] | < 1000 | –
7 | Cc1cc(Cl)cc(-c2ccnc3cc(CN4C(=O)CCCC4=O)sc23)c1OC1CCNCC1 [Example 235, 1-((7-(5-Chloro-3-methyl-2-(piperidin-4-yloxy)phenyl)thieno[3,2-b]pyridin-2-yl)methyl)piperidine-2,6-dione] | < 1000 | –
8 | Cc1cc(Cl)cc(-c2ccnc3cc(CN4C(=O)CCN(C)C4=O)sc23)c1O[C@@H]1CNC[C@@H]1F [Example 150, 3-((7-(5-Chloro-2-(((3R,4S)-4-fluoropyrrolidin-3-yl)oxy)-3-methylphenyl)thieno[3,2-b]pyridin-2-yl)methyl)-1-methyldihydropyrimidine-2,4(1H,3H)-dione] | < 1000 | –
9 | 1-((4-(5-Chloro-2-(((3R,4S)-4-fluoropyrrolidin-3-yl)oxy)-3-methylphenyl)thieno[3,2-d]pyrimidin-6-yl)methyl)pyrrolidine-2,5-dione [Example 96] | < 1000 | –
10 | Cc1cc(Cl)cc(-c2ccnc3cc(Cn4c(=O)ccn(CC(F)(F)F)c4=O)sc23)c1O[C@@H]1CCNC[C@@]1(C)F [Example 276, 3-((7-(5-Chloro-2-(((3R,4R)-3-fluoro-3-methylpiperidin-4-yl)oxy)-3-methylphenyl)thieno[3,2-b]pyridin-2-yl)methyl)-1-(2,2,2-trifluoroethyl)pyrimidine-2,4(1H,3H)-dione] | < 1000 | –
11 | Cc1cc(Cl)cc(-c2ncnc3cc(CN4C(=O)C5CC5C4=O)sc23)c1O[C@@H]1CN(C)C[C@@H]1F (stereo partly drawn) [Example 353, 3-[[4-[5-chloro-2-[(3R,4S)-4-fluoro-1-methyl-pyrrolidin-3-yl]oxy-3-methyl-phenyl]thieno[3,2-d]pyrimidin-6-yl]methyl]-3-azabicyclo[3.1.0]hexane-2,4-dione dihydrochloride] | < 1000 | –
12 | Cc1cc(C(=O)O)cc(-c2ccnc3cc(Cn4c(=O)ccn(CC(F)(F)F)c4=O)sc23)c1O[C@H]1CCCNC1 [Example 291, 3-[2-[[2,6-dioxo-3-(2,2,2-trifluoroethyl)pyrimidin-1-yl]methyl]thieno[3,2-b]pyridin-7-yl]-5-methyl-4-[[(3S)-3-piperidyl]oxy]benzoic acid] | < 1000 | –
13 | Cc1cc(Cl)cc(-c2ccnc3cc(CN4C(=O)C5CC5C4=O)sc23)c1OC1CN2CCC1CC2 (stereo not drawn) [Example 319, 3-[[7-(5-chloro-3-methyl-2-quinuclidin-3-yloxy-phenyl)thieno[3,2-b]pyridin-2-yl]methyl]-3-azabicyclo[3.1.0]hexane-2,4-dione; 2,2,2-trifluoroacetic acid] | < 1000 | –
14 | Cc1cc(Cl)cc(-c2ccnc3cc(CN4C(=O)CN(C)C4=O)sc23)c1O[C@@H]1CNC[C@@H]1F [Example 144, 3-((7-(5-Chloro-2-(((3R,4S)-4-fluoropyrrolidin-3-yl)oxy)-3-methylphenyl)thieno[3,2-b]pyridin-2-yl)methyl)-1-methylimidazolidine-2,4-dione] | 1000 to 10000 | –

Other lines, results leading:

Row | IC50 [1] [nM] | IC50 [2] [nM] | Compound
15 | < 1000 | – | Cc1cc(Cl)cc(-c2ccnc3cc(CN4C(=O)C5C(C4=O)C5(C)C)sc23)c1OC1(C)CNC1 (stereo not drawn) [Example 393, 3-[[7-[5-chloro-3-methyl-2-(3-methylazetidin-3-yl)oxy-phenyl]thieno[3,2-b]pyridin-2-yl]methyl]-6,6-dimethyl-3-azabicyclo[3.1.0]hexane-2,4-dione dihydrochloride]
16 | < 1000 | – | CO[C@H]1CNC[C@H]1Oc1c(C)cc(Cl)cc1-c1ccnc2cc(CN3C(=O)C4C(C3=O)C4(C)C)sc12 (stereo partly drawn) [Example 388, 3-[[7-[5-chloro-2-[(3R,4S)-4-methoxypyrrolidin-3-yl]oxy-3-methyl-phenyl]thieno[3,2-b]pyridin-2-yl]methyl]-6,6-dimethyl-3-azabicyclo[3.1.0]hexane-2,4-dione dihydrochloride]
17 | – | < 1000 | Cc1cc(Cl)cc(-c2ccnc3cc(Cn4c(=O)ccn(CC(F)(F)F)c4=O)sc23)c1OCC1(F)CNC1 [Example 641, 3-[[7-[5-chloro-2-[(3-fluoroazetidin-3-yl)methoxy]-3-methyl-phenyl]thieno[3,2-b]pyridin-2-yl]methyl]-1-(2,2,2-trifluoroethyl)pyrimidine-2,4-dione]
18 | – | < 1000 | Cc1cc(C(F)(F)F)cc(-c2ccnc3cc(Cn4c(=O)ccn(C)c4=O)sc23)c1O[C@H]1CCCNC1 [Example 445]
19 | – | < 1000 | Cc1cc(Cl)cc(-c2ncnc3cc(Cn4c(=O)ccn(C(C)C)c4=O)sc23)c1O[C@H]1CCCNC1 [Example 489, 3-[[4-[5-chloro-3-methyl-2-[[(3S)-3-piperidyl]oxy]phenyl]thieno[3,2-d]pyrimidin-6-yl]methyl]-1-isopropyl-pyrimidine-2,4-dione]
20 | – | < 1000 | Cc1cc(Cl)cc(-c2ccnc3cc(Cn4c(=O)ccn(CC(F)(F)F)c4=O)sc23)c1OCCN1CCCCC1 [Example 666, 3-[[7-[5-chloro-3-methyl-2-[2-(1-piperidyl)ethoxy]phenyl]thieno[3,2-b]pyridin-2-yl]methyl]-1-(2,2,2-trifluoroethyl)pyrimidine-2,4-dione]
21 | – | < 1000 | Cc1cc(Cl)cc(-c2ccnc3cc(Cn4c(=O)ccn(C)c4=O)sc23)c1O[C@H]1CNC[C@H](C)C1 [Example 537, 3-[[7-[5-chloro-3-methyl-2-[[(3R,5R)-5-methyl-3-piperidyl]oxy]phenyl]thieno[3,2-b]pyridin-2-yl]methyl]-1-methyl-pyrimidine-2,4-dione]
22 | – | < 1000 | Cc1cc(Cl)cc(-c2ncnc3cc(Cn4c(=O)ccn(CC(F)(F)F)c4=O)sc23)c1O[C@@H]1CCNC[C@@H]1C [Example 584, 3-[[4-[5-chloro-3-methyl-2-[[(3S,4R)-3-methyl-4-piperidyl]oxy]phenyl]thieno[3,2-d]pyrimidin-6-yl]methyl]-1-(2,2,2-trifluoroethyl)pyrimidine-2,4-dione]
23 | – | < 1000 | Cc1cc(Cl)cc(-c2ccnc3cc(Cn4c(=O)ccn(CC(F)(F)F)c4=O)sc23)c1OCCN1CCCC1 [Example 661, 3-[[7-[5-chloro-3-methyl-2-(2-pyrrolidin-1-ylethoxy)phenyl]thieno[3,2-b]pyridin-2-yl]methyl]-1-(2,2,2-trifluoroethyl)pyrimidine-2,4-dione; 2,2,2-trifluoroacetic acid]
24 | < 1000 | – | Cc1cc(Cl)cc(-c2ccnc3cc(CN4C(=O)C5C(C4=O)C5(C)C)sc23)c1O[C@H]1CCNC[C@@H]1F (stereo partly drawn) [Example 383, 3-[[7-[5-chloro-2-[[(3S,4S)-3-fluoro-4-piperidyl]oxy]-3-methyl-phenyl]thieno[3,2-b]pyridin-2-yl]methyl]-6,6-dimethyl-3-azabicyclo[3.1.0]hexane-2,4-dione; 2,2,2-trifluoroacetic acid]
25 | – | < 1000 | Cc1cc(Cl)cc(-c2ccnc3cc(Cn4c(=O)ccn(C)c4=O)sc23)c1O[C@@H]1CN(C)C[C@@H]1F [Example 458, 3-[[7-[5-chloro-2-[(3R,4S)-4-fluoro-1-methyl-pyrrolidin-3-yl]oxy-3-methyl-phenyl]thieno[3,2-b]pyridin-2-yl]methyl]-1-methyl-pyrimidine-2,4-dione; 2,2,2-trifluoroacetic acid]
26 | – | < 1000 | Cc1cc(Cl)cc(-c2ccnc3cc(Cn4c(=O)ccn(CC(F)(F)F)c4=O)sc23)c1O[C@@H]1CNC[C@@H]1C [Example 566, 3-[[7-[5-chloro-3-methyl-2-[(3S,4S)-4-methylpyrrolidin-3-yl]oxy-phenyl]thieno[3,2-b]pyridin-2-yl]methyl]-1-(2,2,2-trifluoroethyl)pyrimidine-2,4-dione]
27 | – | < 1000 | O=C1CCC(=O)N1Cc1cc2nccc(-c3cc(Cl)cc(C(F)F)c3O[C@@H]3CNC[C@@H]3F)c2s1 [Example 428, 1-[[7-[5-chloro-3-(difluoromethyl)-2-[(3R,4S)-4-fluoropyrrolidin-3-yl]oxy-phenyl]thieno[3,2-b]pyridin-2-yl]methyl]pyrrolidine-2,5-dione]
